Measured values taken from US11613558B2, “Peptides and pharmaceutical compositions for treating eye diseases” (Yuyu Pharma, Inc., priority 2018, dated 2023).
Square brackets hold non-standard residues; d marks the D form. Peptide text beside a SMILES is read from it. Hyp = O=C(O)[C@@H]1C[C@@H](O)CN1; hSer = N[C@@H](CCO)C(=O)O

How the values were obtained:
[1] = test system: rats with dry eye syndrome (extraorbital lacrimal gland excision, ELGE); experiment: Amount of tear secretion (Schirmer test, cobalt chloride paper) in ELGE rats with dry eye syndrome; assay type: in vivo, rat; settings: for Tear Volumes, Day 7 / Tear Volumes, Day 14: ELGE rats, 3 mg/ml, 5 μl/eye twice daily; for Tear Volumes, Day 7: day 7 of administration; for Tear Volumes, Day 14: day 14 of administration; for Change in amount of tear secretion as compared with the ELGE control group: 3% solution as printed, after administration for 14 days
Text: (§1) In order to evaluate the eye protection effect on dry eye syndrome by YDE-001 to YDE-028 prepared in Example 1, a total of 320 Sprague-Dawley-type male rats (OrientBio, Seungnam, Korea) were adapted for 7 days. Thereafter, dry eye syndrome was induced in 264 test rats through extraorbital lacrimal gland excision (hereinafter, ELGE). 8 test rats without the eye abnormality were subjected to a sham operation as a control group.
(§2) The rat was systemically anesthetized by inhaling a mixed gas of 2% to 3% of isoflurane (Hana Pharm. Co., Hwasung, Korea), 70% of N2O, and 28.6% of O2 using a rodent anesthesia machine (Surgivet, Waukesha, Wis., USA) and a ventilator (Model 687, Harvard Apparatus, Cambridge, UK). Thereafter, the extraorbital lacrimal gland located in the subdermal area above the masseter muscle and […] was excised through a transverse incision in a size of 10 mm on the anterior part of the left ear tragus. The skin was sutured by a general method. […] After 6 days from the ELGE operation, it was checked through the Schirmer test by measuring the amount of tear secretion whether dry eye syndrome had been induced. Meanwhile, each rat of the control group with the sham operation was checked for the presence and location of the extraorbital lacrimal gland through a skin incision, and the skin was then sutured without the excision thereof (FIG. 4).
(§3) In addition, in order to evaluate the eye protection effect on dry eye syndrome by YDE-029 to YDE-043 prepared in Example 1, a total of 200 Sprague-Dawley-type male rats (OrientBio, Seungnam, Korea) were adapted for 7 days. Dry eye syndrome was induced in 165 test rats through the ELGE. 8 test rats without the eye abnormality were subjected to the sham operation as a control group. The ELGE was carried out as described above.
(§4) For YDE-001 to YDE-028, YY-102 and the 28 YDE-series were each dissolved in physiological saline at a concentration of 3 mg/ml and administered at a dose of 5 μl/eye at 9:30 am and 3:30 pm daily for 14 days after 7 days from the ELGE operation for a total of 28 times. The DS solution was dissolved in physiological saline at a concentration of 30 mg/ml and administered at a dose of […] twice a day for 14 days after 7 days from the ELGE operation for a total of 28 times. For the sham control and the ELGE control groups, the same stimulation as the administration was applied. In order to prevent excessive eye dryness, the same volume of physiological saline was applied in the same manner in place of the test substances.
as §4, with “Further, for YDE-029 to YDE-043,” for “For YDE-001 to YDE-028,”, “YDE-029 to YDE-043, YY-102 and” for “YDE-001 to YDE-028, YY-102 and”, “and the 15 YDE-series were” for “and the 28 YDE-series were”, “the test substances (FIG. 7).” for “the test substances.”
After 6 days from the ELGE surgery, the changes in the amount of tear secretion were measured at day 7 and day 14 after the administration of YDE-001 to YDE-043. The amount of tear secretion was measured by the […] travel distance of tears absorbed by cobalt chloride paper in a size of 1×15 mm (Toyo Roshi Kaisha, Japan).
The cobalt chloride paper was placed in the lateral canthus of a rat for 60 seconds to absorb tears (FIG. 9). The length of the area absorbed from the corner of the cobalt chloride paper was measured with an electronic digital caliper (Mytutoyo, Tokyo, Japan) (FIG. 8).

[2] = test system: cornea of rats with dry eye syndrome (ELGE); experiment: Corneal permeability of fluorescent dye (corneal damage) in ELGE rats with dry eye syndrome; assay type: in vivo, rat; settings: 5 μl/eye twice daily, day 14
Text: as §1, §2, §3, §4
as §4, with “Further, for YDE-029 to YDE-043,” for “For YDE-001 to YDE-028,”, “YDE-029 to YDE-043, YY-102 and” for “YDE-001 to YDE-028, YY-102 and”, “and the 15 YDE-series were” for “and the 28 YDE-series were”, “the test substances (FIG. 7).” for “the test substances.”
After YDE-001 to YDE-028 were each administered to the eyes […], the changes in the corneal permeability were checked.
In order to measure the corneal permeability, Zolethyl 50™ (Virbac Lab., Carros, France), an animal anesthetic, was intraperitoneally injected at a dose of 25 mg/kg. Thereafter, saline containing a 1% (v/v) fluorescent solution (fluorescein sodium salt, Tokyo Kasei Kogyo Co., Tokyo, Japan) was applied to the eyes at a dose of 5 μl/eye. The eyes thus treated were closed and fixed with a tape. After 1 hour, the remaining fluorescent solution was removed using a cotton swab (FIG. 12). […]

[3] = Stability in aqueous solution under long-term storage conditions (related substances); assay type: physicochemical; settings: 25° C., 75% RH
Experimental: In order to confirm the stability of each test substance in an aqueous solution, […] of each sample was dissolved in 1 ml of water to a concentration of 1 mg/ml, which was then charged to a glass vial, plugged with a rubber cap, sealed with an aluminum cap, and stored under long-term storage conditions (25° C., 75% RH). The stability of the test substance was evaluated by measuring the amount of related substances at the time of one week, two weeks, four weeks, eight weeks, and twelve weeks under the long-term storage conditions.

[4] = Table 4, study of YDE-001 to YDE-028
[5] = Table 6, study of YDE-001 to YDE-028, 3 mg/ml
[6] = Table 5, study of YDE-029 to YDE-043
[7] = Table 7, study of YDE-029 to YDE-043, 3 mg/ml

SMILES: CC(C)C[C@H](NC(=O)CNC(=O)[C@H](CCO)NC(=O)[C@H](CCC(N)=O)NC(=O)CNC(=O)[C@@H]1C[C@@H](O)CN1)C(=O)N[C@@H](C)C(=O)NCC(=O)N1CCC[C@H]1C(=O)N[C@@H](CCCCN)C(=O)O [YDE-026] (H-[Hyp]GQ[hSer]GLAGPK-OH)
- Tear Volumes, Day 7 [1, 4]: 4.32 ± 1.47 mm^3
- Tear Volumes, Day 14 [1, 4]: 6.01 ± 1.83 mm^3
- Permeability of fluorescent dye [2, 5]: 22.63 ± 11.23%
- Amount of related substances (after 12 weeks) [3]: 10.15%

SMILES: COC(=O)C[C@H](NC(=O)[C@H](CCC(N)=O)NC(=O)CNC(=O)[C@@H]1C[C@@H](O)CN1)C(=O)NCC(=O)N[C@@H](CC(C)C)C(=O)N[C@@H](C)C(=O)NCC(=O)N1CCC[C@H]1C(=O)N[C@@H](CCCCN)C(=O)O [YDE-027] (H-[Hyp]GQD(OMe)GLAGPK-OH)
- Tear Volumes, Day 7 [1, 4]: 2.82 ± 0.86 mm^3
- Tear Volumes, Day 14 [1, 4]: 3.95 ± 1.52 mm^3
- Change in amount of tear secretion as compared with the ELGE control group ([1]; study of YDE-001 to YDE-028): did not show any significant changes
- Permeability of fluorescent dye [2, 5]: 50.24 ± 11.94%
- Amount of related substances (after 12 weeks) [3]: 12.74%

SMILES: CNC(=O)C[C@H](NC(=O)[C@H](CCC(N)=O)NC(=O)CNC(=O)[C@@H]1C[C@@H](O)CN1)C(=O)NCC(=O)N[C@@H](CC(C)C)C(=O)N[C@@H](C)C(=O)NCC(=O)N1CCC[C@H]1C(=O)N[C@@H](CCCCN)C(=O)O [YDE-028] (H-[Hyp]GQD(NHMe)GLAGPK-OH)
- Tear Volumes, Day 7 [1, 4]: 4.04 ± 0.99 mm^3
- Tear Volumes, Day 14 [1, 4]: 4.73 ± 1.18 mm^3
- Change in amount of tear secretion as compared with the ELGE control group ([1]; study of YDE-001 to YDE-028): did not show any significant changes
- Permeability of fluorescent dye [2, 5]: 41.17 ± 10.25%
- Amount of related substances (after 12 weeks) [3]: 1.15%

SMILES: CC(C)C[C@H](NC(=O)CNC(=O)[C@H](CC(C)C)NC(=O)[C@H](CCC(N)=O)NC(=O)CNC(=O)[C@@H]1C[C@@H](O)CN1)C(=O)N[C@@H](C)C(=O)NCC(=O)N1CCC[C@H]1C(=O)N[C@@H](Cc1ccc(O)cc1)C(=O)O [YDE-029] (H-[Hyp]GQLGLAGPY-OH)
- Tear Volumes, Day 7 [1, 6]: 5.33 ± 1.43 mm^3
- Tear Volumes, Day 14 [1, 6]: 6.03 ± 1.71 mm^3
- Change in amount of tear secretion as compared with the ELGE control group ([1]; study of YDE-029 to YDE-043): did not show any significant changes
- Permeability of fluorescent dye [2, 7]: 63.45 ± 11.57%
- Amount of related substances (after 12 weeks) [3]: 2.77%

SMILES: CC(C)C[C@H](NC(=O)[C@@H]1CCCN1C(=O)CNC(=O)[C@H](C)NC(=O)[C@H](CC(C)C)NC(=O)CNC(=O)[C@H](CC(C)C)NC(=O)[C@H](CCC(N)=O)NC(=O)CNC(=O)[C@@H]1C[C@@H](O)CN1)C(=O)O [YDE-030] (H-[Hyp]GQLGLAGPL-OH)
- Tear Volumes, Day 7 [1, 6]: 5.69 ± 1.79 mm^3
- Tear Volumes, Day 14 [1, 6]: 6.65 ± 2.17 mm^3
- Change in amount of tear secretion as compared with the ELGE control group ([1]; study of YDE-029 to YDE-043): did not show any significant changes
- Permeability of fluorescent dye [2, 7]: 30.60 ± 13.61%
- Amount of related substances (after 12 weeks) [3]: 2.74%

SMILES: CC(C)C[C@H](NC(=O)CNC(=O)[C@H](CC(C)C)NC(=O)[C@H](CCC(N)=O)NC(=O)CNC(=O)[C@@H]1C[C@@H](O)CN1)C(=O)N[C@@H](C)C(=O)NCC(=O)N1CCC[C@H]1C(=O)N[C@@H](CCC(=O)O)C(=O)O [YDE-031] (H-[Hyp]GQLGLAGPE-OH)
- Tear Volumes, Day 7 [1, 6]: 5.63 ± 1.97 mm^3
- Tear Volumes, Day 14 [1, 6]: 5.91 ± 0.85 mm^3
- Permeability of fluorescent dye [2, 7]: 33.35 ± 11.01%
- Amount of related substances (after 12 weeks) [3]: 34.82%

SMILES: CC(C)C[C@H](NC(=O)CNC(=O)[C@H](CC(C)C)NC(=O)[C@H](CCC(N)=O)NC(=O)CNC(=O)[C@@H]1C[C@@H](O)CN1)C(=O)N[C@@H](C)C(=O)NCC(=O)N1CCC[C@H]1C(=O)N[C@@H](CCC(N)=O)C(=O)O [YDE-032] (H-[Hyp]GQLGLAGPQ-OH)
- Tear Volumes, Day 7 [1, 6]: 5.58 ± 0.80 mm^3
- Tear Volumes, Day 14 [1, 6]: 5.03 ± 0.93 mm^3
- Change in amount of tear secretion as compared with the ELGE control group ([1]; study of YDE-029 to YDE-043): did not show any significant changes
- Permeability of fluorescent dye [2, 7]: 58.90 ± 19.81%
- Amount of related substances (after 12 weeks) [3]: 6.16%
